Common to all, as to type: in vivo
For test [1], the system named is fleas. As to the kind of experiment: Flea repellent test, blunt-end filter paper article in flat surface tube (inverted centrifuge tube). To be noted: 20 fleas, counted after 30 min, tests #1-3. The text has this: (§1) Two types of filter paper articles were constructed. Specifically, article with two blunt ends (herein after “blunt-end article”) and article with one tapered end and one blunt end (herein after “tapered-end article”), were constructed in accordance with the procedures depicted in FIG. 2, except minor modifications for the blunt-end article, in which each of the two filter paper stripes were not cut diagonally from one end, and therefore both ends remained blunt after the two filter paper stripes were adhered. Repellents test were then conducted using the respective articles so as to develop an improved system and/or method for screening a candidate insect pest-repellent.

Test [2] relates to fleas. As to the kind of experiment: Flea repellent test, tapered-end filter paper article in concave surface (round-ended glass) tube.
Excerpt: as §1

Test [3] has as its system fleas. Put plainly: Screening of essential oils as flea-repellents, tapered-end article in round-ended tube, repellency (PR %). Conditions: concentration of about 1% (wt %). An excerpt:
In another aspect, a method of screening a candidate insect pest-repellant using the article 100 of FIG. 1 is provided. Referring again to FIG. 2, during the operation of screening an effective insect pest-repellent, a few drops of a candidate insect pest-repellent solution and a control solution (e.g., a buffer or water) are respectively applied onto the two paper strips (i.e., the first and second paper strips (110, 120) respectively having the first and second tapered ends (111, 121)), and allowed them to spread evenly throughout the respective papers. The two paper strips (110, 120) are then let standing for a few minutes to dry. […] In one example, the entire set up (i.e., including the article 100, the tube 140 and the fleas) is let stand for at least 30 min, before the number of insect pests on respective paper strips (110, 120) are counted. Repellency (PR %) of the candidate insect pest-repellent is determined by the following equation, […]
The article was let stand for about 30 min until it was dried. […] After 30 min, the numbers of fleas on respective sides of the filtered paper article was then counted. Repellency (PR %) of each candidate essential oils was calculated in accordance with the following equation, […]

Setting [4] is: tapered end article + concave surface tube, 20 fleas, counted after 30 min, tests #1-3.

The structures appear in SMILES notation. Values joined by “and” are separate entries in the source; they are usually repeats but may differ in a detail not shown here. Equal entries are not always repeated.

With `CCO` [75% Ethanol, ethanol], in the test with fleas [1], the “number of fleas in the Bottom of the tube” value was 4 and 2 and 3; the “number of fleas on Control (untreated) side of the article” value is 10 and 8 and 6; the “number of fleas on Treated side of the article” value was 6 and 10 and 11. Further, the “repellent activity towards fleas” value with fleas [2] (in words, from Table 1, compared with the two commercial flea repellents) is listed as “no repellent activity”. In the test on fleas [2] (setting [4]), the “number of fleas on Control (untreated) side of the article” value was 9 and 11; the “number of fleas on Treated side of the article” value is 9 and 11 and 8.
For `O=CC=Cc1ccccc1` [cinnamaldehyde], in the test on fleas [3], the repellency result is reported as “at least 97%”.

(Values after patent US9032821B2, “Articles for screening insect pest-repellents and uses thereof” (National Taiwan University, priority 2012, dated 2015).)
